{"source": "paper PMC11481871", "about": "“Discovery of GuaB inhibitors with efficacy against Acinetobacter baumannii infection” (mBio, 2024)", "experiment": "In vitro metabolism in mouse hepatocytes", "assay_type": "in vitro ADME", "description": "The incubation of G2 and G1 with cryopreserved mouse hepatocytes was conducted according to the standard in-house protocol. Cryopreserved hepatocytes were thawed using pre-warmed InVitroGRO HT thawing medium in 50 mL centrifuge tubes. The tubes were centrifuged for 3 min at 50 × g, and the supernatants were discarded. Cells were resuspended with 50 mL of pre-warmed Dulbecco’s modified eagle medium (DMEM) by gently inverting the tube several times. The tubes were centrifuged for 3 min at 50 × g, and the supernatants were discarded. Cells were brought up in 5.0 mL of pre-warmed DMEM incubation medium. The total cell counts and the number of viable cells were determined by the trypan blue exclusion method. Incubations were carried out in 20 mL scintillation vials containing 1.0 mL of hepatocyte suspension (approximately 1.3 × 10^6 cells/mL). The mouse hepatocytes were pre-incubated with or without 1 mM ABT or 4-MP for 15 min. Vials were spiked with G2 or G1 as a DMSO stock solution to a final concentration of 5 µM G2 or G1 and a final DMSO concentration of 0.1%. The scintillation vials were placed on an orbital shaker rotating at 16 rpm in a humidified incubator at 37°C, 5% CO2. The reaction was quenched with 4 mL of acetonitrile at 0 or 3 h. The hepatocyte samples were protein precipitated with 4 volumes of acetonitrile and centrifuged at 2,000 × g for 5 min. The resulting supernatant was reduced to a dry residue and reconstituted with 350 µL water:acetonitrile (2/1; vol/vol). All samples were analyzed by LC-MS/MS system.\nLiquid chromatography (LC) equipment consisted of a CBM 20A Communications Module, NexeraX2 LC 30AD pumps, NexeraX2 SIL 30AC autosampler, CTO Prominence Column Oven from Shimadzu (Columbia, MD), and a 1290 Infinity DAD ultraviolet (UV) detector with a 60 mm flow cell from Agilent Technologies (Waldbronn, Germany). The LC column was an EVO C18 (1.9 µm, 2.1 × 100 mm) from Phenomenex. Mobile phase A was water with 0.1% formic acid and mobile phase B was acetonitrile with 0.1% formic acid. The flow rate was 400 µL/min and the injection volume was 10 µL. Column temperature was 40°C. Mass spectrometry was performed using a 5600 QTRAP mass spectrometer equipped with a TurboIonSpray from Applied Biosystems (Redwood City, CA). Various tandem mass spectrometry (MS/MS) functionalities were used for analysis, which included data-dependent time-of-flight (TOF) scans in a positive ion electrospray mode. The extracted ion chromatography traces were obtained following analysis of mouse hepatocyte incubations and were used to quantify the metabolites."}
{"smiles": "C[C@H](Nc1ccc2ncc3c(c2c1)CCOC3)C(=O)Nc1ccc(Cl)nc1", "note": "[G1, (2S)-N-(6-chloro-3-pyridyl)-2-(2,4-dihydro-1H-pyrano[3,4-c]quinolin-9 ylamino)propanamide]", "values": [{"measurement": "clearance in mouse hepatocytes", "result": "high clearance"}, {"measurement": "metabolism inhibited by ABT", "setting": "1 mM ABT", "result": 39, "unit": "%"}]}
{"smiles": "C[C@H](Nc1ccc2ncc(CO)cc2c1)C(=O)Nc1ccc(Cl)c(N(C)C)c1", "note": "[G2, (2S)-N-[4-chloro-3-(dimethylamino)phenyl]-2-[[3-(hydroxymethyl)-6-quinolyl]amino]propanamide]", "values": [{"measurement": "clearance in mouse hepatocytes", "result": "high clearance"}, {"measurement": "metabolism inhibited by ABT and 4-MP", "setting": "1-aminobenzotriazole (ABT) and 4-methylpyrazole (4-MP)", "result": 38, "unit": "%"}]}
